Paper PMC10604610, “An Induced Pluripotent Stem Cell-Derived Human Blood–Brain Barrier (BBB) Model to Test the Crossing by Adeno-Associated Virus (AAV) Vectors and Antisense Oligonucleotides” (Biomedicines, 2023)

Tests used:
hCMEC/D3 cells = conditions: hCMEC/D3 on collagen I-coated Transwell polyester insert 0.4 μm pore, 900,000 cells/cm^2, 48 h; apical to basal; tracer 0.1 mg/mL in Ringer HEPES buffer pH 7.4; 37 °C, 60 min; fluorescence; mean of triplicate filters
iPSC-derived BMECs = conditions: three iPSC-derived BMEC models (4603, 19-9-7T, AD3-CL1); Transwell polyester insert 0.4 μm pore, 900,000 cells/cm^2, 48 h culture; apical to basal; tracer 0.1 mg/mL in Ringer HEPES buffer pH 7.4; 37 °C, 60 min; fluorescence plate reader; mean of triplicate filters
[1] = system: undifferentiated iPSCs (4603); conditions: undifferentiated iPSCs (4603) on collagen IV/fibronectin-coated Transwell insert, 900,000 cells/cm^2, 48 h; apical to basal; tracer 0.1 mg/mL in Ringer HEPES buffer pH 7.4; 37 °C, 60 min; fluorescence; mean of triplicate filters

Molecule: O=C([O-])c1ccccc1-c1c2ccc(=O)cc-2oc2cc([O-])ccc12.[Na+].[Na+] [Na-F, sodium fluorescein]
- % Permeability (percentage of tracer present in the basal chamber) (hCMEC/D3 cells): significantly higher than in iPSC-derived BMECs but significantly lower than that of control iPSCs
- % Permeability (percentage of tracer present in the basal chamber) (iPSC-derived BMECs): about 5%

Molecule: lucifer yellow [LY]
- % Permeability (percentage of tracer present in the basal chamber) [1]: around 16%
- % Permeability (percentage of tracer present in the basal chamber) (hCMEC/D3 cells): around 16%
- % Permeability (percentage of tracer present in the basal chamber) (iPSC-derived BMECs): Less than 2%
